Columns and labels:
[1] = target: T1, CRABP (cellular retinoic acid binding protein) (Rattus norvegicus, UniProt P62966); test: Direct fixing on CRABP binding protein in rat testicle cytosol, Sephadex G25 separation
T1 construct: rat testicle cytosol containing CRABP; from tissue; host or cells: rat testicle homogenate / cytosol
Method: The difference ( -- ) represents the specific bond.
The total fixing non-specific+specific ( .circle.-- .circle.) is obtained by incubation of increasing concentration (up to a maximum of […]) of the claimed compound with a constant quantity (0.3 ml) of a rat testicle homogenate (CRABP-rich organ). The non-specific fixing of the tritiated compound is determined in parallel, by measuring the fixing with increasing concentrations of the radioactive ligand in the presence of a large excess (1 μm) of cold homolog ligand (.quadrature.--.quadrature.). An incubation time of two hours is necessary for the establishment of balanced conditions.
The elution is done directly in scintillation tubes and the radioactivity is measured by counting.
The difference between the total fixing curve ( .circle.-- .circle.) and non-specific fixing (.quadrature.--.quadrature.) gives the specific fixing curve ( -- ). Analysis of this curve provides the dissociation constant at equilibrium (Kd) which is the concentration of the product required for 50% saturation of CRABP. This constant is a measurement of the affinity of the ligand for its bonding protein, Kd being inversely proportional to affinity (the smaller the Kd, the greater the affinity).

[2] = system: retinoic acid nuclear receptors (RARs); test: Fixing on nuclear receptors RARs in nucleosol of F9 cells, analysed by HPSEC; format: binding, murin; conditions: for molecules of ligand fixed to the RARs per cell (HPSEC peak surface standardized to number of cells): F9 cells, 20 nM tritiated ligand
Method: Cultures of F9 cells of murin embryonic carcinoma (normally four 90 mm dishes containing in total 4-7×10^7 cells per incubation condition) were washed once with pBS (saline phosphate buffer) and incubated for 3 hours in a medium, without serum, supplemented with the marked retinoic homolog (to verify the specifity). The cells were then detached with a trypsin-EDTA mixture and numbered with a Burker hemocytometer. […] 50 μl of marked extract were injected on a 9×250 mm GF 250 column (Dupont de Nemours). The elution was carried out in a buffer 0.3M KH2 PO4, pH 7.8 at a rate of 1 ml/min. The protein content was followed by measuring the optical density at 280 nm. 28 fractions of 0.3 ml each were collected and counted in Picofluor (Packard) scintillating agent. For each retinoid concentration, the number of bonded molecules was determined using the surface of the radioactivity peak and the calculated concentration of demisaturation (C50). The molecular weight calibration of the column was carried out using human albumin (67 kDa), ovalbumin (45 kDa) and myoglobin (16.8 kDa). The dose-response curves and the competition curves were analyzed on a computer through nonlinear regression using the various forms of the Clark equation.

T1 sequence (P62966 whole entry): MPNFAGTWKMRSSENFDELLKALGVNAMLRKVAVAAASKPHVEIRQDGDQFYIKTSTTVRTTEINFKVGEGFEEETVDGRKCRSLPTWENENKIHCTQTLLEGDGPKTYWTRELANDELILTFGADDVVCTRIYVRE

specific fixing on CRABP ([1]; rat testicle homogenate, increasing concentrations of tritiated ligand, with or without 1 μm cold homolog ligand, two hours incubation) | Structure (SMILES) | specificity of fixing on RARs (about 45 kDa radioactivity peak) ([2]; F9 cells incubated with 20 nM tritiated ligand, co-incubation with an excess of 1000 times of cold compound I) | molecules of ligand fixed to the RARs per cell (HPSEC peak surface standardized to number of cells) [2] | nature of the specific fixing on CRABP ([1]; rat testicle cytosol) | non-specific fixing as share of the total fixing ([1]; rat testicle cytosol, in the range of concentrations employed) | fixing on RARs in the presence of excess cold ligand ([2]; F9 cells incubated with 20 nM tritiated retinoic acid, excess of 100 times of cold retinoic acid)
no specific fixing | [3H]c1cc(-c2ccc3cc(C(=O)O)ccc3c2[3H])cc(C23CC4CC(CC(C4)C2)C3)c1OC [Example 1, 6-[3-(1-adamantyl)-4-methoxyphenyl]-2-naphthoic acid marked with tritium] | specific | approximately 4,000 molecules per cell |  |  | 
 | CC1=C(/C=C/C(C)=C/C=C/C(C)=C/C(=O)O)C(C)(C)CCC1 [retinoic acid] |  | approximately 4,000 molecules per cell | saturable and reversible | less than 20% | inhibited

— US5149631A, “Compound marked with tritium, its preparation and its use in the location of nuclear receptors of retinoids” (Centre International de Recherches Dermatologiques Galderma …, priority 1989, dated 1992)
